# Test results as given in patent US8653069B2, “Aralkyl substituted piperidine or piperazine derivatives and their use for treating schizophrenia” (Jiangsu Hengyi Pharmaceutical Co., Ltd., priority 2008, dated 2014).
# Where a name gives a salt, the structure may show the parent alone. Read-outs that look alike come from different tables or passages of the source.
# Columns and labels:
# [1] = tested on: schizophrenia behaviors in mice induced by apomorphine; experiment: In vivo anti-schizophrenia activity: apomorphine-induced stereotyped behavior in mice; settings: female KM mice, oral gavage 30 minutes before apomorphine 10 mg/kg i.p.; II-1 20 mg/kg, aripiprazole 5 mg/kg, risperidone 0.25 mg/kg
# Procedure: A Test of In Vivo Anti-Schizophrenia Activity of Compound II-1
# Apomorphine: apomorphine is dissolved in 0.1% ascorbic acid to form a solution having a dosage of 10 mg/kg.
# Aripiprazole is dissolved in physiological saline to form a solution having a dosage of 5 mg/kg, and subjected to ultrasonication for dissolving.
# Risperidone is dissolved in physiological saline to form a solution having a dosage of 0.25 mg/kg.
# Compound II-1 is formulated to 20 mg/kg, and is formulated in situ for use.
# Female KM mice, 18-22 g, are randomly divided into a solvent control group, a model control group, a positive control group, and various treatment groups of the tested medicines. Groups for behavior observation test contain 5 mice each group, and groups for activity observation test contain 4 mice each group.
# (1) Administration in mice: each group of mice is administrated with 0.1 ml/10 g of the various tested medicines by oral gavage. […]
# The stereotyped behavior numbers of the mice in various groups at six time points are statistically analyzed to calculate an average number of each mouse, and the result is denoted by mean±SD.
# The test result of stereotyped behavior is statistically analyzed using a LSD method; and observation result of the numbers of activities of the mice is statistically analyzed with repeated-measures analysis of variance and Q-test.
# [2] = in vivo; settings: mouse, po
# [3] = target: T1, dopamine D2 receptor (Homo sapiens, UniProt P14416); experiment: Dopamine D2 receptor-binding assay ([3H]Spiperone displacement); settings: inhibition of binding of 0.4 nM [3H]Spiperone, CHO-hD2L film product, room temperature 120 minutes; read-out: IC50 (affinity to D2 receptor)
# T1 construct: expressed in transfected cells; host or cells: CHO-hD2L cells (membrane preparation)
# T1 sequence (P14416 whole entry): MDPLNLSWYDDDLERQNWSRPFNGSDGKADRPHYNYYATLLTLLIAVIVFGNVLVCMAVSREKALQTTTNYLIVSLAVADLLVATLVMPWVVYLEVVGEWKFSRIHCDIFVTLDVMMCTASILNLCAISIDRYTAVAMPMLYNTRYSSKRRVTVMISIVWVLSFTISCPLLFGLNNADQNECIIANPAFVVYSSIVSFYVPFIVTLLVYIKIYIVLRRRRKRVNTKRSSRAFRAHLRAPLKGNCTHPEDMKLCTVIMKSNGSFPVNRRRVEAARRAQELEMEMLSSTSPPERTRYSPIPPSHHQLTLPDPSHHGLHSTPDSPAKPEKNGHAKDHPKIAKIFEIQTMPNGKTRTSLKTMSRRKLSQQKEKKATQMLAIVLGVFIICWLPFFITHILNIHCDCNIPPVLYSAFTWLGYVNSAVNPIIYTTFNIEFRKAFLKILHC
# Procedure: A Dopamine D2 Receptor-Binding Assay
# An isotope ligand for D2 receptor: [^3H]Spiperone (77.0 Ci/mmol); (+)Butaclamol; GF/C glass fiber media; a liposoluble scintillation solution; and the D2 receptor protein expressed by sf9 cells.
# A binding assay of a film product of CHO-hD2L cells and [^3H]Spiperone is conducted in a 250 μl of 50 mM of Tris-HCl […] buffer (Ph=7.4) solution comprising 100 mM of NaCl, 1 mM of MgC12 and 1% of DMSO. A sample in duplicate containing compounds to be tested, 0.4 nM of [^3H]Spiperone and 12 ug of protein is maintained at room temperature for 120 minutes. The bound radioactive ligand is separated by flash filtration under reduced pressure using Whatman GF/B glass fiber filter pre-treated with 0.3% polyethylenelmine, and radioactivity maintained on the filter is measured using liquid scintillation spectrophotometry. The title compounds in the following examples are tested using the above test, which comprises first of all testing competitive inhibition rate of each compound at a concentration of 10 umol/L to binding of [^3H]Spiperone to D2 receptor through a rough screening; and compounds having inhibition rate higher than 95% are subjected to receptor binding assay under a series of concentrations to determine a half-inhibitory concentration (IC50, the concentration of a compound needed for inhibiting binding of 50% [^3H]Spiperone to D2 receptor). Two tubes under each concentration are measured, and each compound is subjected to two independent tests.
# [4] = target: T2, rD2R (Rattus norvegicus, UniProt P61169); experiment: Antagonistic test of D2 receptor (cAMP radioimmunoassay, Forskolin + Dopamine, CHO-rD2 cells); assay type: cell-based; settings: 10 μM Forskolin + 10 μM Dopamine, cAMP generated
# T2 construct: expressed in transfected cells; host or cells: CHO cells stably expressing rD2R (CHO-rD2)
# T2 sequence (P61169 whole entry): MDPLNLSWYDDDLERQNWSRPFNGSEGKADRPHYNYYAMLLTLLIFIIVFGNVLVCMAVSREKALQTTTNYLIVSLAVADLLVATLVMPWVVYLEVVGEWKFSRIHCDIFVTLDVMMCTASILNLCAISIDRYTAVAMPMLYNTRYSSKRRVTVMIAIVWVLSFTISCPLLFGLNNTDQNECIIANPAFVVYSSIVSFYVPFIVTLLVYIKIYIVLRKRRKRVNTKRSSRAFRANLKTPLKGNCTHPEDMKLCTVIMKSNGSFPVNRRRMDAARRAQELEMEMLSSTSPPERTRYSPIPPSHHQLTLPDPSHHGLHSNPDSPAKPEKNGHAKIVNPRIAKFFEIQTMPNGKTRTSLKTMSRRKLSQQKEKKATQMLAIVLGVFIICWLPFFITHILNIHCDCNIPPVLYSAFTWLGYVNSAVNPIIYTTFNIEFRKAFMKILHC
# Procedure: An Antagonistic Test of D2 Receptor
# CHO-rD2 cell is seeded on a 96-well plate at a concentration of 30,000 cells/well, and cultured overnight; each medicine is dissolved in a serum-free F12 culture media containing 100 μM of IBMX, and is added to the above cell for preculturing 30 minutes at 37° C.; thereafter a serum-free F12 culture media containing 10 μM of Forskolin and 10 μM of Dopamine is added and react for 8 minutes, and then 100 μl of pre-cooled 1M HClO4 is added to terminate the reaction. The reaction solution is allowed to stand on ice for 40 minutes, and thereto 20 μl of 2M K2CO3 is added to neutralize the reaction solution. The reaction solution is centrifuged at 3,000 rpm for 15 minutes at 4° C., and a KClO4 deposit is discarded. An amount of supernatant is diluted in 0.05M of acetic acid buffer, and the amount of generated cAMP is measured with radioimmunoassay method. […] See the kit's instructions for detailed steps. Two tubes under each concentration of each compound are measured, and each compound is subjected to two independent tests.
# The ordinate of the dose-effect curve represents a reduced percentage of the amount of generated cAMP through antagonist of DA by the compound.
# [5] = tested on: histidine auxotroph mutant of mouse salmonella TA97, TA98, TA100 and TA102
# Text: Bacterial Reverse Mutation Test of II-1
# Strains: histidine auxotroph mutant of mouse salmonella TA97, TA98, TA100 and TA102.
# Results: the test consists of two parts, i.e., −S9 and +S9. […] No bacteriostatic actions to all the strains are observed at all other doses, and the growth background is good.
# [6] = Oral absorption in studies on animal models; assay type: in vivo
SMILES,number of stereotyped activities of mice compared with the model group [1],LD50 [2],IC50 [3],IC50 [4],"Ames test ([5]; TA97, TA98, TA100, TA102, with or without S9, all tested doses)","dose showing bacteriostatic action ([5]; TA97, test system containing S9)","dose showing bacteriostatic action ([5]; TA98, test system without S9)",oral absorption [6]
O=C1CCc2ccc(OCCCCN3CCN(c4cccc(Cl)c4Cl)CC3)cc2N1 [aripiprazole],reduced significantly,1400 mg/kg,–,–,–,–,–,–
Cc1nc2n(c(=O)c1CCN1CCC(c3noc4cc(F)ccc34)CC1)CCCC2 [risperidone],reduced significantly,83.2 mg/kg,–,–,–,–,–,–
"O=C1CCc2ccc(OCCCCN3CCC(c4noc5cc(F)ccc45)CC3)cc2N1 [II-1, 7-[4-(4-(6-fluoro-benzisoxazolyl)-1-piperidinyl)-n-butoxy]-3,4-dihydro-2(1H)-quinolinone hydrochloride]",–,> 2000 mg/kg,0.00566 µM,3.38 µM,negative,5000 μg per dish,5000 μg per dish,good
